Reference: PMC8739753 (ACS catalysis, 2021)
In brackets after ≈: the same amount, converted by molar mass. Several values for one entry are separate records, joined by “and”; a condition that tells them apart may be missing. Equal values may be shown once.

Tests used:
[1] = test system: TamI WT; experiment: Total turnover number, TamI WT; conditions: compound as substrate
[2] = target: TamI WT; experiment: Substrate-induced heme spin shift binding, TamI WT; conditions: TamI WT (parent enzyme)
[3] = test system: S. pneumonia ATCC 49619; experiment: Antimicrobial testing; assay type: cell-based
[4] = test system: vancomycin-resistant Enterococcus; experiment: Antimicrobial testing; assay type: cell-based; conditions: for MIC: Enterococcus
[5] = target: TamI WT and mutants; experiment: Substrate-induced heme spin shift binding, several TamI P450s
[6] = target: TamL enzyme (Streptomyces sp. 307-9, UniProt D3Y1I2); experiment: Isothermal titration calorimetry with TamL
[7] = test system: CC1=CC[C@H]2O[C@]1(C)O[C@H]([C@H](C)/C=C(C)/C=C/C(O)=C1/C(=O)CNC1=O)[C@H]2C; experiment: purified protein, by the assay type
[8] = test system: B. anthracis 34f2; assay type: cell-based; conditions: comparable to commercial antibiotic erythromycin
[9] = test system: TamI WT and mutants; conditions: range over WT and all variants tested
[10] = test system: TamI biocatalysts; experiment: In vitro analytical enzymatic reactions with TamI biocatalysts; assay type: biochemical, Streptomyces sp. 307-9; conditions: compound as substrate
[11] = test system: E. coli TolC; assay type: cell-based
[12] = substrate: CC(/C=C/C(O)=C1/C(=O)CNC1=O)=C\[C@@H](C)[C@H]1O[C@@]2(C)O[C@H](C(=O)[C@@H]3O[C@@]32C)[C@@H]1C; experiment: purified protein, by the assay type; conditions: other: compound as substrate; P450 TamI WT
[13] = substrate: CC(C=CC(O)=C1C(=O)CNC1=O)=CC(C)C1OC2(C)OC(C(O)C=C2C)C1C; experiment: purified protein, by the assay type; conditions: other: compound as substrate; P450 TamI WT
[14] = substrate: CC1=CC(=O)[C@H]2O[C@]1(C)O[C@H]([C@H](C)/C=C(C)/C=C/C(O)=C1/C(=O)CNC1=O)[C@H]2C; experiment: purified protein, by the assay type; conditions: other: compound as substrate; P450 TamI WT

## CC(/C=C/C(O)=C1/C(=O)CNC1=O)=C\[C@@H](C)[C@H]1O[C@@]2(C)O[C@H](C(=O)[C@@H]3O[C@@]32C)[C@@H]1C [compound 4, Tirandamycin A]
[1]
  TTN (mol substrate consumed/mol P450): 143
[2]
  Kd: no shift observed
[3]
  MIC: 25 µM (≈ 10.4 µg/mL)
[4]
  activity against VRE (in words): strongest activity
  MIC: 6.25 µM (≈ 2.61 µg/mL)

## O=C(O)c1cn(C2CC2)c2cc(N3CCNCC3)c(F)cc2c1=O [ciprofloxacin, reference compound]
[3]
  MIC: 1.56 µM (≈ 0.517 µg/mL)
[4]
  MIC: > 100 µM

## CC(C=CC(O)=C1C(=O)CNC1=O)=CC(C)C1OC2(C)OC(C(O)C=C2C)C1C (stereo not drawn) [compound 2, tirandamycin E]
[5]; the other P450s (than L101A_L295I) including the parent enzyme
  spin shift: no spin shift was observed
[6]
  Kd: 2.26 µM
[3]
  MIC: > 100 µM
[4]
  MIC: > 100 µM

## CNC(=O)[C@@H](C)[C@H]1C(=O)/C(=C(O)/C=C/C(C)=C/[C@@H](C)[C@H]2O[C@@]3(C)O[C@H](C=C[C@@]34CO4)[C@@H]2C)C(=O)N1[C@@H]1CC[C@H](O)[C@H](C)O1 [streptolydigin, reference compound]
[3]
  MIC: > 100 µM
[4]
  MIC: > 100 µM

## P450 TamI WT (Streptomyces sp. 307-9)
[7]
  Km: 16.0 ± 2.6 µM
  kcat: 0.497 ± 0.0317 s⁻¹
  kcat/Km: 31200 M⁻¹ s⁻¹

## CC[C@H]1OC(=O)[C@H](C)[C@@H](O[C@H]2C[C@@](C)(OC)[C@@H](O)[C@H](C)O2)[C@H](C)[C@@H](O[C@@H]2O[C@H](C)C[C@H](N(C)C)[C@H]2O)[C@](C)(O)C[C@@H](C)C(=O)[C@H](C)[C@@H](O)[C@]1(C)O [erythromycin, reference compound]
[3]
  MIC: 0.195 µM (≈ 0.143 µg/mL)
[4]
  MIC: 3.13 µM (≈ 2.3 µg/mL)

## CC1=CC(=O)[C@H]2O[C@]1(C)O[C@H]([C@H](C)/C=C(C)/C=C/C(O)=C1/C(=O)CNC1=O)[C@H]2C [compound 3, tirandamycin D]
[5]; heme spin shift, range over WT and all variants tested
  Kd: 6.89 to 8.32 µM
[8]
  activity against B. anthracis 34f2 (in words): strong activity
[9]
  TTN (mol substrate consumed/mol P450): 313–340
[3]
  MIC: 12.5 µM (≈ 5.02 µg/mL)
  activity against S. pneumonia ATCC 49619 (in words): enhanced activity
[4]
  MIC: > 100 µM

## tirandamycin O’ [compound 10]
[10]
  oxidative activity / product formation with TamI biocatalysts: failed to yield products

## CC1=CC[C@H]2O[C@]1(C)O[C@H]([C@H](C)/C=C(C)/C=C/C(O)=C1/C(=O)CNC1=O)[C@H]2C [compound 1, tirandamycin C]
[11]
  activity against E. coli TolC (in words): relatively weak activity
[8]
  activity against B. anthracis 34f2 (in words): strong activity
[3]
  MIC: 12.5 µM (≈ 4.84 µg/mL)
  activity against S. pneumonia ATCC 49619 (in words): enhanced activity
[4]
  MIC: 25 µM (≈ 9.69 µg/mL)

B1: P450 TamI WT (Streptomyces sp. 307-9) (protein)
chain: MPMLQDSVPLELDDAFMQDPHSVYARLNAEGSAHRVMMPPGVPVCGGLPVWLITGYEEVRSALADPRLSTDLNRTDRLFAQNEPDRNKRGAFSSALATHMLHSDPPDHTRLRKLVNKAFTSRAIEKLRPEIEQITGELLAALPDEDPVDLLDAFAFPLPIRVICLLLGVPLEEQENFKSWSKALVSGDSPAATAAASTAMIEYLGDLIERKRRTPTDDVLAALVSARDVDDRLTETELVSMAFLLFIGGHETTVNTLGNGTLHLMRNLDQWEALRQDRSLLPGAVEEFLRLESPLKHATFRCATEDLRIGDTAIPAGDFVLLALASANRDPERFGDPHTLDVRRPTGGHVAFGHGIHYCLGAPLARMEAQVAFGVLLDTFPAMRLAVDPEDMRWRTSTLIRGLHSLPVRLNRP
[12]
  Km: 8.2 ± 1.0 µM
  kcat: 0.0006 ± 1.67e-05 s⁻¹
  kcat/Km: 67 M⁻¹ s⁻¹ and 73.3 M⁻¹ s⁻¹
[13]
  Km: 108.5 ± 25.9 µM
  kcat: 0.000667 ± 0.000167 s⁻¹
  kcat/Km: 5 M⁻¹ s⁻¹
[14]
  Km: 36.5 ± 7.1 µM
  kcat: 0.113 ± 0.00833 s⁻¹
  kcat/Km: 3170 M⁻¹ s⁻¹
